In one test the target is T1, Human PD-L1/PD-1 (Homo sapiens, UniProt Q9NZQ7).
T1 construct: made in house; host or cells: HEK293T
The experiment in a line: HTRF PD-1-Ig/PD-L1-His binding assay (human PD-L1). Particulars: cluster symbol; read-out: HTRF IC50 cluster. In a few lines:
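Soluble PD-1-Ig binding to PD-L1-His measured by HTRF in dPBS with 0.1% BSA and 0.05% Tween-20. Detection used europium cryptate anti-Ig antibody (1 nM final) and APC anti-His antibody (20 nM final) added on top of the binding reaction.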
On the technique in general: TR-FRET usually uses a lanthanide donor and a delayed reading to cut background.

The target in test [1] is T2, LK35.2-hPD-L1 cells / PE-labeled PD-1-Ig (Homo sapiens, UniProt Q9NZQ7).
T2 construct: expressed in transfected cells; host or cells: LK35.2 mouse B cell line
T2 sequence (Q9NZQ7 19-290): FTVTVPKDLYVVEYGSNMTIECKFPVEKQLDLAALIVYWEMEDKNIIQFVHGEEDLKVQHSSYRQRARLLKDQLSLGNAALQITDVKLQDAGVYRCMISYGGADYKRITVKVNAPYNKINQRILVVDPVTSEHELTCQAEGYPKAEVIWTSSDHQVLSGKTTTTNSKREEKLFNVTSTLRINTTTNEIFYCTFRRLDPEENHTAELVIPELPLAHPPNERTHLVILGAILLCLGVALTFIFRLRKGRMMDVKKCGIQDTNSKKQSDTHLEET
Briefly: LK35.2-hPD-L1 cell binding high-content screening assay. The format is cell-based. Particulars: cluster symbol, read-out: CBA IC50 cluster. In a few lines: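 Binding of PE-conjugated human PD-1-Ig (1 nM final) to human PD-L1 stably expressed on a mouse B-cell line (LK35.2) was measured by high-content imaging after washes. Compound and labeled PD-1-Ig were co-incubated 1 h at 37 °C with cells in RPMI/10% FCS.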

The mark [2] stands for this setting: cell binding assay, cell line not given.

SMILES strings stand for the structures. Where two headings read alike, the source gives them in different places. Positions of bridges follow the written chain, without caps; N, C: chain ends. Non-standard residues stand in square brackets, D forms with d. Residues, ends and D or L forms follow the SMILES beside them. ξ: configuration not given here. *: point of attachment. Bta = N[C@@H](Cc1csc2ccccc12)C(=O)O; Hyp = O=C(O)[C@@H]1C[C@@H](O)CN1; NMeNle = CCCC[C@H](NC)C(=O)O; NMeM = CN[C@@H](CCSC)C(=O)O; NMeA = CN[C@@H](C)C(=O)O; Orn = NCCC[C@H](N)C(=O)O; Dab = NCC[C@H](N)C(=O)O; Dap = NC[C@H](N)C(=O)O; Alloc = C=CCOC(=O)*; ξC = NC(CS)C(=O)O; Sar = CNCC(=O)O Bounds are passed on as bounds.

Our source for the IC50 values is US9850283B2, “Macrocyclic inhibitors of the PD-1/PD-L1 and CD80(B7-1)/PD-L1 protein/protein interactions” (BRISTOL-MYERS SQUIBB COMPANY, priority 2013, dated 2017).

T1 sequence (Q9NZQ7 with tags, fused parts or gaps): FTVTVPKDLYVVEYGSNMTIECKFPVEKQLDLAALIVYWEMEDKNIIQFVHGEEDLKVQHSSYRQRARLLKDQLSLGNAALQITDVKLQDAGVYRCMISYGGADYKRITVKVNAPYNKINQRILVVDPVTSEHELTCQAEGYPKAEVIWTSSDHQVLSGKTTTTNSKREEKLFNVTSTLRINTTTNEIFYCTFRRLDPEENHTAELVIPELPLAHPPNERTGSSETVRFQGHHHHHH

Consider `CCCC[C@H]1C(=O)N(C)[C@@H](CCCC)C(=O)N[C@@H](CC(C)C)C(=O)N[C@H](C(=O)NCC(N)=O)CSCC(=O)N[C@@H](Cc2ccc(O)cc2)C(=O)N(C)[C@@H](C)C(=O)N[C@@H](CC(N)=O)C(=O)N(C)CC(=O)N[C@@H](Cc2c[nH]cn2)C(=O)N[C@@H](CCC(N)=O)C(=O)N2C[C@H](O)C[C@H]2C(=O)N[C@@H](Cc2c[nH]c3ccccc23)C(=O)N[C@@H](CO)C(=O)N[C@@H](Cc2c[nH]c3ccccc23)C(=O)N1C` [Example 5084] ({CH2CO}-Y[NMeA]N[Sar]HQ[Hyp]WSW[NMeNle][NMeNle]LCG-NH2; thioether N-14), for which the IC50 at Human PD-L1/PD-1 is 6.76 to 30.3 nM; in test [1] (setting [2]) it was 4.78 to 72.9 nM.
For `CCCC[C@H]1C(=O)N(C)[C@@H](CCSC)C(=O)N[C@@H](CCCNC(=N)N)C(=O)NC(C(=O)NCC(N)=O)CSCC(=O)N[C@@H](Cc2ccc(O)cc2)C(=O)N(C)[C@@H](C)C(=O)N[C@@H](CC(N)=O)C(=O)N2CCC[C@H]2C(=O)N[C@@H](Cc2cnc[nH]2)C(=O)N[C@@H](CO)C(=O)N2C[C@H](O)C[C@H]2C(=O)N[C@@H](Cc2c[nH]c3ccccc23)C(=O)N[C@@H](CO)C(=O)N[C@@H](Cc2c[nH]c3ccccc23)C(=O)N1C` (stereo partly drawn) [Example 9107] ({CH2CO}-Y[NMeA]NPHS[Hyp]WSW[NMeNle][NMeM]R[ξC]G-NH2; thioether N-14) the same measures were 6.76 to 30.3 nM and 4.78 to 72.9 nM.
For `CCCC[C@H]1C(=O)N(C)[C@@H](CCCC)C(=O)N[C@@H](C)C(=O)N[C@H](C(=O)NCC(N)=O)CSCC(=O)N[C@@H](Cc2ccc(O)cc2)C(=O)N(C)[C@@H](C)C(=O)N[C@@H](CC(N)=O)C(=O)N2CCC[C@H]2C(=O)N[C@@H](CN)C(=O)N[C@@H](CCC(=O)O)C(=O)N2C[C@H](O)C[C@H]2C(=O)N[C@@H](Cc2c[nH]c3ccccc23)C(=O)N[C@@H](CCN)C(=O)N[C@@H](Cc2c[nH]c3ccccc23)C(=O)N1C` [Example 5040] ({CH2CO}-Y[NMeA]NP[Dap]E[Hyp]W[Dab]W[NMeNle][NMeNle]ACG-NH2; thioether N-14) the same measures were 6.76 to 30.3 nM and 0.158 to 4.71 nM.
For `C=CCOC(=O)NCCC[C@@H]1NC(=O)[C@H](CCCC)N(C)C(=O)[C@H](CCCC)N(C)C(=O)[C@H](Cc2csc3ccccc23)NC(=O)[C@H](CCNC(=O)OCC=C)NC(=O)[C@H](Cc2c[nH]c3ccccc23)NC(=O)[C@@H]2C[C@@H](O)CN2C(=O)[C@H](CCC(=O)O)NC(=O)[C@H](Cc2cnc[nH]2)NC(=O)[C@@H]2CCCN2C(=O)[C@H](CCCN)NC(=O)[C@H](C)N(C)C(=O)[C@H](Cc2ccc(O)cc2)NC(=O)CSC[C@@H](C(=O)NCC(N)=O)NC1=O` [Example 1230] ({CH2CO}-Y[NMeA][Orn]PHE[Hyp]W[Dab](Alloc)[Bta][NMeNle][NMeNle][Orn](Alloc)CG-NH2; thioether N-14), the results for the IC50 (at Human PD-L1/PD-1; in test [1] (cell line of CBA not given (LK35.2-hPD-L1 or 293T-hPD-L1))) were more than 30.5 nM and more than 74.3 nM, respectively.
For `CCCC[C@H]1C(=O)N(C)[C@@H](CCCC)C(=O)N[C@@H](CCCNC(=N)N)C(=O)N[C@H](C(=O)NCC(=O)NCC(=O)NCC(N)=O)CSCC(=O)N[C@@H](Cc2ccc(O)cc2)C(=O)N(C)[C@@H](C)C(=O)N[C@@H](CC(N)=O)C(=O)N2CCC[C@H]2C(=O)N[C@@H](Cc2cnc[nH]2)C(=O)N[C@@H](CC(C)C)C(=O)N2CCC[C@H]2C(=O)N[C@@H](Cc2c[nH]c3ccccc23)C(=O)N[C@@H](CO)C(=O)N[C@@H](Cc2c[nH]c3ccccc23)C(=O)N1C` [Example 6020] ({CH2CO}-Y[NMeA]NPHLPWSW[NMeNle][NMeNle]RCGGG-NH2; thioether N-14), the IC50 at Human PD-L1/PD-1 was in the range of 0.385 to 6.74 nM; in test [1] (setting [2]) it was 0.158 to 4.71 nM.
For `CCCC[C@H]1C(=O)N(C)[C@@H](CCCC)C(=O)N[C@@H](CO)C(=O)NC(C(=O)NCC(N)=O)CSCC(=O)N[C@@H](Cc2ccc(O)cc2)C(=O)N(C)[C@@H](C)C(=O)N[C@@H](CC(N)=O)C(=O)N2CCC[C@H]2C(=O)N[C@@H](Cc2cnc[nH]2)C(=O)N[C@@H](CC(C)C)C(=O)N2C[C@H](O)C[C@H]2C(=O)N[C@@H](Cc2c[nH]c3ccccc23)C(=O)N[C@@H](CO)C(=O)N[C@@H](Cc2csc3ccccc23)C(=O)N1C` (stereo partly drawn) [Example 9028] ({CH2CO}-Y[NMeA]NPHL[Hyp]WS[Bta][NMeNle][NMeNle]S[ξC]G-NH2; thioether N-14) the same measures were 0.385 to 6.74 nM and 0.158 to 4.71 nM.

As a reminder, the IC50 is the point on the concentration scale where inhibition reaches its midpoint.
